Measurements published in patent US10344026B2, “Compositions and methods of targeting mutant K-ras” (NANTBIO, INC., priority 2017, dated 2019).

Columns and labels:
Type in all cases: cell-based
[1] = system: phospho-ERK in Panc10.05 (G12D); assay: In-Cell Western phospho-ERK, Panc10.05; settings: Homo sapiens, Panc1005, 1 h; Panc10.05, one hour treatment; read-out: In-Cell Western Panc10.05 (G12D) Erk (P)
Procedure, shortened: (§1)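 Read-out: imaged cellular fluorescence after phospho-ERK/phospho-Akt immunostaining; EC50 derived. Cells plated 3000/well, 18 hr 37° C, compound 1 hr, 0.5% DMSO. Full-inhibition controls: 1 uM BEZ235 (pAkt), 1 uM MEK Inhibitor II (pERK).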

[2] = system: phospho-ERK in Panc1 (G12D); assay: In-Cell Western phospho-ERK, Panc1; settings: Homo sapiens, PANC-1, 1 h; Panc1, one hour treatment; read-out: In-Cell Western Panc1 (G12D) Erk (P)
Procedure, shortened: as §1

[3] = system: HCC827 (K-Ras wild type cell line); assay: Viability assay (CellTiterBlue, 72 hr) HCC827; settings: Homo sapiens, GI50, CellTiterBlue, HCC827 K-Ras wild-type
Procedure, shortened: (§2)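 GI50 calculation uses a window set by DMSO-treated wells (100% viability) and 100 uM tamoxifen (0%). Cells (1000/well) sit 18 hr at 37 °C, receive compound for 72 hr in 0.5% DMSO, then get CellTiterBlue for 3 hr before reading at Ex550/Em590.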

HCT116-G31D = assay: Viability assay (CellTiterBlue, 72 hr) HCT116; settings: Homo sapiens, HCT-116, GI50, CellTiterBlue, HCT116 K-Ras G13D, read-out: 72 hr Cell Viability HCT116 (G13D)
Procedure, shortened: as §2

K-Ras G12D = molecular target: T1, K-Ras G12D (Homo sapiens, UniProt P01116, G12D); assay: G-LISA Ras activation, 293H cells transfected with G12D mutant; settings: compound 1 hour
T1 construct: expressed in transfected cells; host or cells: 293H cells
Procedure, shortened: (§3)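 Mutant or wild-type Ras was expressed transiently in 293H cells, which were incubated 1 hour with compound across 3.125-25 μM. G-LISA on cold lysates gave Ras activation, wild-type cells having first been EGF-stimulated (100 ng/ml, 2 min).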

[4] = system: phospho-Akt in Panc10.05 (G12D); assay: In-Cell Western phospho-Akt, Panc10.05; settings: Homo sapiens, Panc1005, 1 h; Panc10.05, one hour treatment; read-out: In-Cell Western Panc10.05 (G12D) Akt (P)
Procedure, shortened: as §1

[5] = system: A375 (K-Ras wild type cell line); assay: Viability assay (CellTiterBlue, 72 hr) A375; settings: Homo sapiens, A-375, GI50, CellTiterBlue
Experimental: Viability assays were performed on exemplary compounds and Table 2 below lists exemplary results for selected compounds tested on K-Ras wild type cell lines (Ishikawa, U87-MG, HCC827, and A375) and various K-Ras mutant cell lines (Panc1-G12D; Panc10.05-G12D; HCT116-G31D). Results are expressed in μM and corresponding structures are shown in FIGS. 2A-2G and Examples 1-152, above.
Cells are counted and seeded at 1000 cells/36 ul medium/well into 384-well microplates. Cells are returned to 37° C. CO2 incubator for 18 hr. Drug is made as 200× in DMSO and diluted into medium to 10×. To each well is added 4 ul 10× drug, and plates are returned to the incubator. Final assay DMSO concentration is 0.5%. After 72 hr, 8 ul CellTiterBlue (Promega) is added to each well. After 3 hr, fluorescence (Ex550/Em590) is determined on the Victor Plate Reader (Perkin Elmer). Assay range is determined by DMSO control (100% viability) and 100 uM tamoxifen (0% viability). GI50 values are calculated using Graphpad Prism.

Panc10.05-G12D = assay: Viability assay (CellTiterBlue, 72 hr) Panc10.05; settings: Homo sapiens, Panc1005, GI50, CellTiterBlue, Panc10.05 K-Ras G12D, read-out: 72 hr Cell Viability Panc10.05 (G12D)
Procedure, shortened: as §2

wild type K-Ras = molecular target: T2, wild type K-Ras (Homo sapiens, UniProt P01116); assay: G-LISA Ras activation, 293H cells transfected with Ras wild-type, EGF stimulated; settings: compound 1 hour, then 100 ng/ml EGF 2 minutes
T2 construct: expressed in transfected cells; host or cells: 293H cells
Procedure, shortened: as §3

Panc1-G12D = assay: Viability assay (CellTiterBlue, 72 hr) Panc1; settings: Homo sapiens, PANC-1, GI50, CellTiterBlue, Panc1 K-Ras G12D, read-out: 72 hr Cell Viability Panc1 (G12D)
Procedure, shortened: as §2

[6] = system: phospho-Akt in A375 (Wild-type); assay: In-Cell Western phospho-Akt, A375; settings: Homo sapiens, A-375, 1 h; A375, one hour treatment; read-out: In-Cell Western A375 (Wild-type) Akt (P)
Experimental: (§4) In-cell phosphorylation assays for Erk and Akt were performed on several of the compounds and exemplary results are shown in Table 3 below using HCC827 and A375 cell lines for wild type K-Ras and Panc1 and Panc10.05 cell lines for G12D K-Ras mutants. Results are expressed in μM and corresponding structures are shown in FIGS. 2A-2G and Examples 1-152, above.
(§5) Cells are seeded in complete medium into black sided, clear-bottom 384-well microplates at 3000 cells/[…]/well. Plates are returned to 37° C. CO2 incubator for 18 hr. Drug is made as 200× in DMSO and diluted into medium to 10×. To each well is added 4 ul 10× test article or controls, and plates are returned to the incubator. Final assay DMSO concentration is 0.5%. After one hour, cells are fixed in formaldehyde, rinsed & permeabilized with triton X-100, and blocked with BSA/Goat serum blocking solution. Primary phospho-Akt and phospho-ERK antibodies are added and plates are incubated overnight at 4° C. Plates are rinsed with Tween-20 wash buffer and secondary antibody (Goat anti-rabbit, Thermofisher) is added. After 2 hours, plates are rinsed in Tween-20 wash buffer, and then PBS. Plates are imaged on the Celigo (Nexcelom) and cellular fluorescence is quantitated. Full inhibition of phospho-Akt is achieved with 1 uM BEZ235 (Sellekchem), while full inhibition of phospho-ERK is achieved with 1 uM MEK Inhibitor II Calbiochem). EC50 values are calculated using Graphpad Prism.

[7] = system: phospho-ERK in A375 (Wild-type); assay: In-Cell Western phospho-ERK, A375; settings: Homo sapiens, A-375, 1 h; A375, one hour treatment; read-out: In-Cell Western A375 (Wild-type) Erk (P)
Experimental: as §4, §5

[8] = system: Ishikawa (K-Ras wild type cell line); assay: Viability assay (CellTiterBlue, 72 hr) Ishikawa; settings: Homo sapiens, GI50, CellTiterBlue, Ishikawa K-Ras wild-type
Procedure, shortened: as §2

[9] = system: phospho-ERK in HCC827 (Wild-type); assay: In-Cell Western phospho-ERK, HCC827; settings: Homo sapiens, 1 h; HCC827, one hour treatment; read-out: In-Cell Western HCC827 (Wild-type) Erk (P)
Experimental: as §4, §5

[10] = system: U87-MG (K-Ras wild type cell line); assay: Viability assay (CellTiterBlue, 72 hr) U87-MG; settings: Homo sapiens, U-87 MG, GI50, CellTiterBlue, U87-MG K-Ras wild-type
Procedure, shortened: as §2

[11] = system: phospho-Akt in Panc1 (G12D); assay: In-Cell Western phospho-Akt, Panc1; settings: Homo sapiens, PANC-1, 1 h; Panc1, one hour treatment; read-out: In-Cell Western Panc1 (G12D) Akt (P)
Procedure, shortened: as §1

T1 sequence (P01116 whole entry G12D): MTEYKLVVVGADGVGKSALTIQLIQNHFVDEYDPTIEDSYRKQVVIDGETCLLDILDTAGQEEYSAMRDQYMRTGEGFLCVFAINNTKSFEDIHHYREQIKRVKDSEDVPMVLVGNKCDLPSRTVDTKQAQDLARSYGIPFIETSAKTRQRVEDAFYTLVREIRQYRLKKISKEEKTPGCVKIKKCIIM
T2 sequence (P01116 whole entry): as the sequence (P01116 whole entry G12D) above, with D12G counted along it

Structure (SMILES)	EC50 [1] [µM]	EC50 [2] [µM]	IC50 [3] [µM]	IC50 (HCT116-G31D) [µM]	IC50 (K-Ras G12D) [µM]	EC50 [4] [µM]	IC50 [5] [µM]	IC50 (Panc10.05-G12D) [µM]	IC50 (wild type K-Ras) [µM]	IC50 (Panc1-G12D) [µM]	EC50 [6] [µM]	EC50 [7] [µM]	IC50 [8] [µM]	EC50 [9] [µM]	IC50 [10] [µM]	EC50 [11] [µM]
Cc1nc(C2CCC2)oc1C(=O)Nc1nc(-c2ccc3c(c2)CCC(=O)N3Cc2cccnc2)cs1 [Compound 92, 2-cyclobutyl-4-methyl-N-(4-(2-oxo-1-(pyridin-3-ylmethyl)-1,2,3,4-tetrahydroquinolin-6-yl)thiazol-2-yl)oxazole-5-carboxamide]	2	6	4	1.5	8.5	17	> 25	3	15.2	6	> 25	> 25	> 25	15	> 25	
COCCN1C(=O)CCc2cc(-c3csc(NC(=O)c4oc(C)nc4C)n3)ccc21 [Compound 95, N-(4-(1-(2-methoxyethyl)-2-oxo-1,2,3,4-tetrahydroquinolin-6-yl)thiazol-2-yl)-2,4-dimethyloxazole-5-carboxamide]	2	10	5	4	5.1	14	> 25	4	15.4	7	> 25	> 25	> 25	10	> 25	6
Cc1nn(C)c(C)c1C(=O)Nc1nc(-c2ccc3c(c2)CCC(=O)N3Cc2cccnc2)cs1 [Compound 113, 1,3,5-trimethyl-N-(4-(2-oxo-1-(pyridin-3-ylmethyl)-1,2,3,4-tetrahydroquinolin-6-yl)thiazol-2-yl)-1H-pyrazole-4-carboxamide]	7	2	> 25	11	6.3	> 25	14	2	9.6	19	> 25	13	> 25	6	> 25	> 25
Cn1nc(C(F)F)cc1C(=O)Nc1nc(-c2ccc3c(c2)CCC(=O)N3)cs1 [Compound 49, 3-(difluoromethyl)-1-methyl-N-(4-(2-oxo-1,2,3,4-tetrahydroquinolin-6-yl)thiazol-2-yl)-1H-pyrazole-5-carboxamide]	19	> 25	> 25	> 25	12.3	20	> 25	> 25		> 25	> 25	> 25	> 25	> 25	> 25	> 25
Cc1nc(C)c(C(=O)Nc2nc(-c3ccc4c(c3)CCC(=O)N4Cc3cccnc3)cs2)s1 [Compound 105, 2,4-dimethyl-N-(4-(2-oxo-1-(pyridin-3-ylmethyl)-1,2,3,4-tetrahydroquinolin-6-yl)thiazol-2-yl)thiazole-5-carboxamide]	11	5	> 25	13	10.4	> 25	25	2		12	> 25	> 25	> 25	19	> 25	> 25
Cc1nc(C2CCCCC2)oc1C(=O)Nc1nc(-c2ccc3c(c2)CCC(=O)N3Cc2cccnc2)cs1 [Compound 101, 2-cyclohexyl-4-methyl-N-(4-(2-oxo-1-(pyridin-3-ylmethyl)-1,2,3,4-tetrahydroquinolin-6-yl)thiazole-2-yl)oxazole-5-carboxamide]	3	18	> 25	14	9.3	> 25	4	4		2	> 25	> 25	2	14	> 25	> 25
CCn1nccc1C(=O)Nc1nc(-c2ccc3c(c2)CCC(=O)N3)cs1 [Compound 46, 1-ethyl-N-(4-(2-oxo-1,2,3,4-tetrahydroquinolin-6-yl)thiazol-2-yl)-1H-pyrazole-5-carboxamide]	11	> 25	> 25	> 25	22.5	13	> 25	11		> 25	> 25	> 25	> 25	> 25	> 25	> 25
CC(C)c1cc(C(=O)Nc2nc(-c3ccc4c(c3)CCC(=O)N4)cs2)n(C)n1 [Compound 44, 3-isopropyl-1-methyl-N-(4-(2-oxo-1,2,3,4-tetrahydroquinolin-6-yl)thiazol-2-yl)-1H-pyrazole-5-carboxamide]	> 25	> 25	> 25	> 25	4	> 25	> 25	2		> 25	> 25	> 25	> 25	> 25	> 25	> 25
